Assay results reported in ChEMBL document CHEMBL5537128, “Discovery of LWY713 as a potent and selective FLT3 PROTAC degrader with in vivo activity against acute myeloid leukemia” (Eur J Med Chem, 2024).
The source made the active and inactive calls. The rule behind the calls is not given here.

What was measured:
[1] = target: T1, Protein cereblon/Receptor-type tyrosine-protein kinase FLT3 (Homo sapiens, UniProt P36888+Q96SW2); assay: PROTAC activity at CRBN/FLT3 in human MV4-11 cells harboring FLT3-ITD mutation assessed as induction of FLT3 degradation incubated for 24 hrs by immunoblotting analysis; format: cell-based
[2] = target: T1, Protein cereblon/Receptor-type tyrosine-protein kinase FLT3; assay: PROTAC activity at CRBN/FLT3 in human MV4-11 cells harboring FLT3-ITD mutation assessed as induction of FLT3 degradation by measuring maximal efficacy incubated for 24 hrs by immunoblotting analysis relative to control; format: cell-based
Target sequence in this assay (P36888 27-993 limits assumed): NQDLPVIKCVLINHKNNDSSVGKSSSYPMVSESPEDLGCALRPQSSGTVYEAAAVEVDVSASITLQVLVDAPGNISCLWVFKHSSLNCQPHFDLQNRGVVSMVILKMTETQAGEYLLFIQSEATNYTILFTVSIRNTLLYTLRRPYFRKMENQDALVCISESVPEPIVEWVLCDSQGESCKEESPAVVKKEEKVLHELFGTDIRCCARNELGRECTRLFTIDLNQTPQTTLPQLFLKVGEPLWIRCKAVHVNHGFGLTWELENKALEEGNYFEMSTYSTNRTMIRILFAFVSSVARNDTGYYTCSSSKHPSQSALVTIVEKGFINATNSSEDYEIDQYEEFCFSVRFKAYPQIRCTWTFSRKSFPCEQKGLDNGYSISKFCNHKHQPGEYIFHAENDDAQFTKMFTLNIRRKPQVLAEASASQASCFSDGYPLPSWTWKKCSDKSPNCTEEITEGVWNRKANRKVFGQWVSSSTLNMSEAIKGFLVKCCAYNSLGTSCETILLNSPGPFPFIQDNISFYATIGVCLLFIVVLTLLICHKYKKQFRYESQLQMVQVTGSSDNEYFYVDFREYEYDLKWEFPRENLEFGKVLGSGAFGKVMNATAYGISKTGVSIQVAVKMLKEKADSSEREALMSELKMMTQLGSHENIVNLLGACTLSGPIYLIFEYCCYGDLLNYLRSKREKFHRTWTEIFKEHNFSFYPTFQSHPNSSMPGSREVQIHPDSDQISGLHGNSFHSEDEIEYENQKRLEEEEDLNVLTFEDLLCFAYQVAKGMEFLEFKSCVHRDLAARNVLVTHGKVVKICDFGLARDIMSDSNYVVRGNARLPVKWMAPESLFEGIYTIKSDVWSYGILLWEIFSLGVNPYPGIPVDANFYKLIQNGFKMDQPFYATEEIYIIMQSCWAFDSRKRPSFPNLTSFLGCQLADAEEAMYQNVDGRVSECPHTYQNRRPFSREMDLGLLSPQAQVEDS
Target sequence in this assay (Q96SW2 whole entry partner): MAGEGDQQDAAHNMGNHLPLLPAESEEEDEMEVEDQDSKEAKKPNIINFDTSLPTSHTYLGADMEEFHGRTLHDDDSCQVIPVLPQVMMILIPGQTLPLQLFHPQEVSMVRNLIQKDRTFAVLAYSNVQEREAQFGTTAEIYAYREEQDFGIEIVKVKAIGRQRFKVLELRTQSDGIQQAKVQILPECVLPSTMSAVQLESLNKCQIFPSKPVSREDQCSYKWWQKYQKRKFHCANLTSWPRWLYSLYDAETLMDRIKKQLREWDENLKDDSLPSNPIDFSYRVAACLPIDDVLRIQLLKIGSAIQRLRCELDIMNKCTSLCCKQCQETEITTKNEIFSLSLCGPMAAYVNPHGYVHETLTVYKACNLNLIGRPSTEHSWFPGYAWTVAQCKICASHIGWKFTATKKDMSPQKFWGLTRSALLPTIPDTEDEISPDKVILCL

[3] = target: T1, Protein cereblon/Receptor-type tyrosine-protein kinase FLT3; assay: PROTAC activity at CRBN/FLT3 in human MV4-11 cells harboring FLT3-ITD mutation assessed as induction of FLT3 degradation at 1 nM incubated for 2 to 20 hrs by Immunoblotting analysis; format: cell-based; details: time 2-20 hrs
Target sequence in this assay (P36888 27-993 limits assumed): as the sequence (P36888 27-993 limits assumed) above
Target sequence in this assay (Q96SW2 whole entry partner): as the sequence (Q96SW2 whole entry partner) above

[4] = target: Tyrosine-protein kinase receptor UFO (Homo sapiens) (UniProt P30530); assay: Induction of AXL degradation in human MDA-MB-231 cells at 1 to 10 nM measured upto 20 hrs by immunoblotting analysis; format: cell-based; details: dose 1-10 nM
[5] = target: ALK tyrosine kinase receptor (Homo sapiens) (UniProt Q9UM73); assay: Induction of ALK degradation in human Raji cells at 1 to 10 nM measured upto 24 hrs by immunoblotting analysis; format: cell-based; details: dose 1-10 nM
[6] = target: Leukocyte tyrosine kinase receptor (Homo sapiens) (UniProt P29376); assay: Induction of LTK degradation in human Raji cells at 1 to 10 nM measured upto 24 hrs by immunoblotting analysis; format: cell-based; details: dose 1-10 nM
[7] = target: T1, Protein cereblon/Receptor-type tyrosine-protein kinase FLT3; assay: PROTAC activity at CRBN/FLT3 in human MV4-11 cells harboring FLT3 ITD mutation assessed as induction of FLT3 degradation at 1 nM incubated for 6 hrs in presence of lenalidomide by Immunoblotting analysis; format: cell-based
Target sequence in this assay (P36888 27-993 limits assumed): as the sequence (P36888 27-993 limits assumed) above
Target sequence in this assay (Q96SW2 whole entry partner): as the sequence (Q96SW2 whole entry partner) above

[8] = target: T1, Protein cereblon/Receptor-type tyrosine-protein kinase FLT3; assay: PROTAC activity at CRBN/FLT3 in human MV4-11 cells harboring FLT3 ITD mutation assessed as induction of FLT3 degradation at 1 nM incubated for 6 hrs in presence of gilteritinib by immunoblotting analysis; format: cell-based
Target sequence in this assay (P36888 27-993 limits assumed): as the sequence (P36888 27-993 limits assumed) above
Target sequence in this assay (Q96SW2 whole entry partner): as the sequence (Q96SW2 whole entry partner) above

[9] = target: T1, Protein cereblon/Receptor-type tyrosine-protein kinase FLT3; assay: PROTAC activity at CRBN/FLT3 in human MV4-11 cells harboring FLT3 ITD mutation assessed as induction of FLT3 degradation at 1 nM incubated for 6 hrs in presence of MLN4924 by immunoblotting analysis; format: cell-based
Target sequence in this assay (P36888 27-993 limits assumed): as the sequence (P36888 27-993 limits assumed) above
Target sequence in this assay (Q96SW2 whole entry partner): as the sequence (Q96SW2 whole entry partner) above

[10] = target: T1, Protein cereblon/Receptor-type tyrosine-protein kinase FLT3; assay: PROTAC activity at CRBN/FLT3 in human MV4-11 cells harboring FLT3 ITD mutation assessed as induction of FLT3 degradation at 1 nM incubated for 6 hrs in presence of MG132 by immunoblotting analysis; format: cell-based
Target sequence in this assay (P36888 27-993 limits assumed): as the sequence (P36888 27-993 limits assumed) above
Target sequence in this assay (Q96SW2 whole entry partner): as the sequence (Q96SW2 whole entry partner) above

[11] = target: T1, Protein cereblon/Receptor-type tyrosine-protein kinase FLT3; assay: PROTAC activity at CRBN/FLT3 in human MV4-11 cells harboring FLT3 ITD mutation assessed as induction of FLT3 degradation at 1 nM incubated for 6 hrs in presence of bafilomycin by immunoblotting analysis; format: cell-based
[12] = target: T1, Protein cereblon/Receptor-type tyrosine-protein kinase FLT3; assay: PROTAC activity at CRBN/FLT3 in human MV4-11 cells harboring FLT3 ITD mutation assessed as induction of FLT3 degradation at 1 nM measured upto 12 hrs in presence of cycloheximide by immunoblotting analysis; format: cell-based
MV4-11 [13] = assay: Antiproliferative activity against human MV4-11 cells assessed as inhibition of cell proliferation incubated for 72 hrs by CCK8 assay; format: functional, cell-based; details: MV4-11, 72 h
MV4-11 [14] = assay: Potency index, ratio of gilteritinib IC50 to test compound IC50 for antiproliferative activity against human MV4-11 cells assessed as inhibition of cell proliferation incubated for 72 hrs by CCK8 assay; format: functional
MV4-11 [15] = assay: Induction of apoptosis in human MV4-11 cells incubated for 48 hrs by Annexin V/7-AAD staining based flow cytometric analysis; format: functional, cell-based; details: dose 0.016-10 nM
MV4-11 [16] = assay: Induction of apoptosis in human MV4-11 cells assessed as early apoptotic cells at 2 nM incubated for 48 hrs by Annexin V/7-AAD staining based flow cytometric analysis relative to control; format: functional
MV4-11 [17] = assay: Induction of apoptosis in human MV4-11 cells assessed as late apoptotic cells at 2 nM incubated for 48 hrs by Annexin V/7-AAD staining based flow cytometric analysis relative to control; format: functional
MV4-11 [18] = assay: Induction of apoptosis in human MV4-11 cells assessed as early apoptotic cells at 10 nM incubated for 48 hrs by Annexin V/7-AAD staining based flow cytometric analysis relative to control; format: functional
MV4-11 [19] = assay: Induction of apoptosis in human MV4-11 cells assessed as late apoptotic cells at 10 nM incubated for 48 hrs by Annexin V/7-AAD staining based flow cytometric analysis relative to control; format: functional
MV4-11 [20] = assay: Induction of apoptosis in human MV4-11 cells assessed as necrotic cells at 10 nM incubated for 48 hrs by Annexin V/7-AAD staining based flow cytometric analysis relative to control; format: functional
MV4-11 [21] = assay: Induction of apoptosis in human MV4-11 cells assessed as increase in cleaved PARP level at 2 to 10 nM incubated for 48 hrs by immunoblotting analysis; format: functional, cell-based; details: dose 2-10 nM
MV4-11 [22] = assay: Induction of apoptosis in human MV4-11 cells assessed as increase in cleaved caspase 3 level at 2 to 10 nM incubated for 48 hrs by immunoblotting analysis; format: functional, cell-based; details: dose 2-10 nM
MV4-11 [23] = assay: Induction of cell cycle arrest at G0/G1 phase in human MV4-11 cells assessed as sub-G0/G1 phase cells at 0.4 nM incubated for 24 hrs by PI staining based flow cytometric analysis relative to control; format: functional
MV4-11 [24] = assay: Induction of cell cycle arrest at G0/G1 phase in human MV4-11 cells assessed as G0/G1 phase cells at 0.4 nM incubated for 24 hrs by PI staining based flow cytometric analysis relative to control; format: functional
MV4-11 [25] = assay: Induction of cell cycle arrest at G0/G1 phase in human MV4-11 cells assessed as S phase cells at 0.4 nM incubated for 24 hrs by PI staining based flow cytometric analysis relative to control; format: functional
MV4-11 [26] = assay: Induction of cell cycle arrest at G0/G1 phase in human MV4-11 cells assessed as G2/M phase cells at 0.4 nM incubated for 24 hrs by PI staining based flow cytometric analysis relative to control; format: functional
MV4-11 [27] = assay: Induction of cell cycle arrest at G0/G1 phase in human MV4-11 cells assessed as sub-G0/G1 phase cells at 2 nM incubated for 24 hrs by PI staining based flow cytometric analysis relative to control; format: functional
MV4-11 [28] = assay: Induction of cell cycle arrest at G0/G1 phase in human MV4-11 cells assessed as G0/G1 phase cells at 2 nM incubated for 24 hrs by PI staining based flow cytometric analysis relative to control; format: functional
MV4-11 [29] = assay: Induction of cell cycle arrest at G0/G1 phase in human MV4-11 cells assessed as S phase cells at 2 nM incubated for 24 hrs by PI staining based flow cytometric analysis relative to control; format: functional
MV4-11 [30] = assay: Induction of cell cycle arrest at G0/G1 phase in human MV4-11 cells assessed as G2/M phase cells at 2 nM incubated for 24 hrs by PI staining based flow cytometric analysis relative to control; format: functional
MV4-11 [31] = assay: Inhibition of PI3K/AKT signaling pathway in human MV4-11 cells assessed as reduction in AKT phosphorylation incubated for 24 hrs by immunoblotting analysis; format: cell-based; details: dose 0.08-50 nM
[32] = target: T1, Protein cereblon/Receptor-type tyrosine-protein kinase FLT3; assay: PROTAC activity at CRBN/FLT3 in human MV4-11 cells harboring FLT3-ITD mutation assessed as reduction in FLT3 phosphorylation incubated for 24 hrs by immunoblotting analysis; format: cell-based; details: dose 0.08-50 nM
MV4-11 [33] = assay: Inhibition of JAK/STAT5 signaling pathway in human MV4-11 cells assessed as reduction in STAT5 phosphorylation incubated for 24 hrs by immunoblotting analysis; format: cell-based; details: dose 0.08-50 nM
MV4-11 [34] = assay: Inhibition of ERK phosphorylation in human MV4-11 cells incubated for 24 hrs by immunoblotting analysis; format: cell-based; details: dose 0.08-50 nM
MV4-11 [35] = assay: Antitumor activity against human MV4-11 cells xenografted in NOD/SCID mouse assessed as reduction in tumor volume at 6 mg/kg, ip administered once a day for 21 days; format: functional, organism-based; details: time 21.0 day
[36] = Toxicity in NOD/SCID mouse xenografted with human MV4-11 cells assessed as weight loss at 6 mg/kg, ip administered once daily for 21 days; format: organism-based; details: in vivo, 504 h, time 21 day

Sequence of ALK tyrosine kinase receptor (Homo sapiens) (Q9UM73 19-1620 limits assumed): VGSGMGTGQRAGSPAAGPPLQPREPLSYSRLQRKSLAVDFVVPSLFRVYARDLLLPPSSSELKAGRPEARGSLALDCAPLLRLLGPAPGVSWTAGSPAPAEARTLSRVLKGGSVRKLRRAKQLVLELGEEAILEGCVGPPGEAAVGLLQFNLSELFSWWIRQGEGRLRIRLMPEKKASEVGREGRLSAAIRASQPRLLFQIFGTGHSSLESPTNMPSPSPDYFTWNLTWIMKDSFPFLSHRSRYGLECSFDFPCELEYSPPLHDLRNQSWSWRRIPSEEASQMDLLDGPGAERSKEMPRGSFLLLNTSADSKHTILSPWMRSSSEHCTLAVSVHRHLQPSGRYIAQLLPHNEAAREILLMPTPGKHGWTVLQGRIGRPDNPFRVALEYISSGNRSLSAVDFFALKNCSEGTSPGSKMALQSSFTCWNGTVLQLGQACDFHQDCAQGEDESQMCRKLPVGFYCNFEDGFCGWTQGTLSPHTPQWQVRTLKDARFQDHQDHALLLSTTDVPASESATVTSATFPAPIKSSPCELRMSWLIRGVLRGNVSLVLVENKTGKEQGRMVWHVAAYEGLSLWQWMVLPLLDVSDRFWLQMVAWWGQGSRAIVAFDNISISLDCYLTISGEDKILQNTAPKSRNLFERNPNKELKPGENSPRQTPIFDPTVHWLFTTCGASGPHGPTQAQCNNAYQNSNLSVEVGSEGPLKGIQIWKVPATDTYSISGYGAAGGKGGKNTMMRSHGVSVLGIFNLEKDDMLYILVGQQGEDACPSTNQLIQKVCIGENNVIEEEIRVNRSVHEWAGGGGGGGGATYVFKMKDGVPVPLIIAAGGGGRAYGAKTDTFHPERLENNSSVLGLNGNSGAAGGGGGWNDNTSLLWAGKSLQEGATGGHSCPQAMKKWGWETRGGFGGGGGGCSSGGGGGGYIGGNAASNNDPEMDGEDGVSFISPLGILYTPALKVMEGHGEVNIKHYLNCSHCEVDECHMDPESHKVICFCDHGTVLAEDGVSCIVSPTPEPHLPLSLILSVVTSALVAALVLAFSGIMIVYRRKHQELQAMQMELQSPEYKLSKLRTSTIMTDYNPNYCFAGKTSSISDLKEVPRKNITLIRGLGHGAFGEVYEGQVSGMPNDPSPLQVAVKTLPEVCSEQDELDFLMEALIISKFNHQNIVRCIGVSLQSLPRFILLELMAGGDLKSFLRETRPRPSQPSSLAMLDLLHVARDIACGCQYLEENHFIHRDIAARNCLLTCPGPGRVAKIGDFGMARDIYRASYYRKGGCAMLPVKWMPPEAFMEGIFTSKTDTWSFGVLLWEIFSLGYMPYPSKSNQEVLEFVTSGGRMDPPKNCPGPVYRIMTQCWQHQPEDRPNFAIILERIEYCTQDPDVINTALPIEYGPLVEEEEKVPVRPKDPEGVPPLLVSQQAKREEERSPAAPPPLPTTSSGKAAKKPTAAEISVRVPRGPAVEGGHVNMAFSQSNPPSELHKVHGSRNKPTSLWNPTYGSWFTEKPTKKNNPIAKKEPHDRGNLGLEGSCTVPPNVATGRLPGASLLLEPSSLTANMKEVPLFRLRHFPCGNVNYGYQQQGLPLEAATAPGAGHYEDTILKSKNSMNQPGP
Sequence of Leukocyte tyrosine kinase receptor (Homo sapiens) (P29376 whole entry): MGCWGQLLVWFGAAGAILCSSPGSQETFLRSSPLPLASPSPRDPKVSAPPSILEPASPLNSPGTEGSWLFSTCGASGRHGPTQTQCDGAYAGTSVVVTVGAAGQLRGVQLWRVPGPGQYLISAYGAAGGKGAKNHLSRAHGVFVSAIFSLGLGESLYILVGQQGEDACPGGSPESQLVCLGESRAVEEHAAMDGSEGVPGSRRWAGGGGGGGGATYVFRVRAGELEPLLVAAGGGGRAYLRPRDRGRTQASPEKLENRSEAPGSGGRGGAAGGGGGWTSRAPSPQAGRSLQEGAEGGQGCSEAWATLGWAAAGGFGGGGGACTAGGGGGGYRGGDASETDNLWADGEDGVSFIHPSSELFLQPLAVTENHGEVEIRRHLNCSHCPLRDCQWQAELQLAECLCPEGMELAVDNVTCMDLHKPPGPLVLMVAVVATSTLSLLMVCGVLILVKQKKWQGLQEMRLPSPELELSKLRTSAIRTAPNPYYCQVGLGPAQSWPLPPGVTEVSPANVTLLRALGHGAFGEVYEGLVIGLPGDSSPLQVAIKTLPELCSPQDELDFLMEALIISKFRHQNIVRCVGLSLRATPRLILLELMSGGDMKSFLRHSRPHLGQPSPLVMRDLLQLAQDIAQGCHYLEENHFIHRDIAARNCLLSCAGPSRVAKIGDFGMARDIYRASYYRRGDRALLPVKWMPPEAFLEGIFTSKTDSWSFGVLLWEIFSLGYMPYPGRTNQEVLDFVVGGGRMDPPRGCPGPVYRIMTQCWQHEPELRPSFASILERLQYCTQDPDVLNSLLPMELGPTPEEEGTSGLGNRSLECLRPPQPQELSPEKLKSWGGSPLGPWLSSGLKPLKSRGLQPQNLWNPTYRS

What does the source list for `CCc1nc(C(N)=O)c(Nc2ccc(N3CCC(N4CCN(C(=O)COc5cccc6c5CN(C5CCC(=O)NC5=O)C6=O)CC4)CC3)c(OC)c2)nc1NC1CCOCC1` (configuration not stated)?
Activity [1]: Dose-Dependent Effect; DC50 [1]: 0.64 nM; Emax [2]: 94.8%; Activity [3]: Active; Activity [4]: inactive; Activity [5]: inactive; Activity [6]: inactive; Activity [7]: inactive; Activity [8]: inactive; Activity [9]: inactive; Activity [10]: inactive; Activity [11]: Active; Activity [12]: Active; IC50 (MV4-11 [13]): 1.5 nM; Ratio IC50 (MV4-11 [14]): 4.6; Activity (MV4-11 [15]): Dose-Dependent Effect; Activity (MV4-11 [16]): 2.8%; Activity (MV4-11 [17]): 24.8%; Activity (MV4-11 [18]): 3.4%; Activity (MV4-11 [19]): 33.1%; Activity (MV4-11 [20]): 15.9%; Activity (MV4-11 [21]): Active; Activity (MV4-11 [22]): Active; Activity (MV4-11 [23]): 2.4%; Activity (MV4-11 [24]): 79.8%; Activity (MV4-11 [25]): 5.6%; Activity (MV4-11 [26]): 12.1%; Activity (MV4-11 [27]): 6.8%; Activity (MV4-11 [28]): 82.1%; Activity (MV4-11 [29]): 2.9%; Activity (MV4-11 [30]): 8.1%; inhibition (MV4-11 [31]): Dose-Dependent Effect; Activity [32]: Active; inhibition (MV4-11 [33]): Dose-Dependent Effect; inhibition (MV4-11 [34]): Dose-Dependent Effect; Activity (MV4-11 [35]): Active; Activity [36]: Non-Toxic
